Reference: article PMC11995724, “Antibiotic target discovery by integrated phenotypic and activity-based profiling of electrophilic fragments” (Cell chemical biology, 2025)
Structures can show the parent of a compound that is named as a salt.

Assay: in vitro
Conditions: human, hek293t cells

Compound | viability at 48 h, 25 µM [%]
Cc1nnsc1CNC(=O)C(C)Cl (stereo not shown) [7-M07, 2-chloro-N-[(4-methyl-1,2,3-thiadiazol-5-yl)methyl]propanamide] | 89
COc1cc(C=C(C#N)C(=O)Nc2cccc(Cl)c2)cc(O)c1O [9-G20, N-(3-chlorophenyl)-2-cyano-3-(3,4-dihydroxy-5-methoxyphenyl)prop-2-enamide] | 72.4
O=C(CCl)N(Cc1cnn(-c2ccccc2)c1)C1CC1 [6-L09, 2-chloro-N-cyclopropyl-N-[(1-phenyl-1H-pyrazol-4-yl)methyl]acetamide] | 1.4
CC(Cl)C(=O)NCCS(=O)(=O)Nc1ccccn1 (stereo not shown) [7-L05, 2-chloro-N-{2-[(pyridin-2-yl)sulfamoyl]ethyl}propanamide] | 103
C=CC(=O)N1CCC(C(=O)NCC2([S+](C)[O-])CCC2)CC1 (stereo not shown) [2-D18, N-[(1-methanesulfinylcyclobutyl)methyl]-1-(prop-2-enoyl)piperidine-4-carboxamide] | 73.4
N#CC(C(=O)Nc1ccc(Cl)cc1)=C(S)Nc1ccccc1 [8-H22, N-(4-chlorophenyl)-2-cyano-3-(phenylamino)-3-sulfanylprop-2-enamide] | 78.8
C=CC(=O)N1CCC(C(=O)N2CCn3ccnc32)CC1 [2-I04, 1-(4-{1H,2H,3H-[1,3]diazolo[1,2-a]imidazole-1-carbonyl}piperidin-1-yl)prop-2-en-1-one] | 99.3
Cc1cc(NC(=O)CN(C)C(=O)C(C)Cl)no1 (stereo not shown) [7-M19, 2-chloro-N-methyl-N-{[(5-methyl-1,2-oxazol-3-yl)carbamoyl]methyl}propanamide] | 79.5
COC(=O)C(C(=O)CCl)=C1Nc2ccccc2N1 [10-G12, methyl 4-chloro-2-(2,3-dihydro-1H-1,3-benzodiazol-2-ylidene)-3-oxobutanoate] | 48.7
C=CC(=O)Nc1ccc(C(=O)N2CCC[C@@H]2C(=O)OC)cc1 [2-E21, methyl (2R)-1-[4-(prop-2-enamido)benzoyl]pyrrolidine-2-carboxylate] | 104
COc1c(Cl)cc(Cl)cc1C=C(C#N)C(N)=O [9-M13, 2-cyano-3-(3,5-dichloro-2-methoxyphenyl)prop-2-enamide] | 137
O=C(CCl)NCC1CN(Cc2ccccc2)CC12CCC2 (stereo not shown) [7-H03, N-({6-benzyl-6-azaspiro[3.4]octan-8-yl}methyl)-2-chloroacetamide hydrochloride] | 0.629
C=CC(=O)N1CCOC(c2noc(C(C)C)n2)C1 (stereo not shown) [1-O05, 1-{2-[5-(propan-2-yl)-1,2,4-oxadiazol-3-yl]morpholin-4-yl}prop-2-en-1-one] | 87
C=CC(=O)N1CCCCC1c1nc2ccccc2n1C (stereo not shown) [3-F04, 1-[2-(1-methyl-1H-1,3-benzodiazol-2-yl)piperidin-1-yl]prop-2-en-1-one] | 84.2
C=CC(=O)NCC1CCN(C2CC2)CC1 [1-A07, N-[(1-cyclopropylpiperidin-4-yl)methyl]prop-2-enamide] | 80.2
CCn1cc(NC(=O)CCl)cn1 [6-I15, 2-chloro-N-(1-ethyl-1H-pyrazol-4-yl)acetamide hydrochloride] | 10.5
CN(C)C1=NC(N)=NC(=C(C#N)C(=O)CCl)N1 [10-P20, 2-[4-amino-6-(dimethylamino)-1,2-dihydro-1,3,5-triazin-2-ylidene]-4-chloro-3-oxobutanenitrile] | 104
Cc1cc(=O)[nH]c(-c2cccc(NC(=O)C(C#N)=Cc3ccco3)c2)n1 [8-B10, 2-cyano-3-(furan-2-yl)-N-[3-(4-methyl-6-oxo-1,6-dihydropyrimidin-2-yl)phenyl]prop-2-enamide] | 57.8
C=CC(=O)NCc1cccc(NS(C)(=O)=O)c1 [3-K15, N-[(3-methanesulfonamidophenyl)methyl]prop-2-enamide] | 31.7
C=CC(=O)N(Cc1ccc2c(c1)CCC2)Cc1c(C)noc1C [1-L09, N-[(2,3-dihydro-1H-inden-5-yl)methyl]-N-[(3,5-dimethyl-1,2-oxazol-4-yl)methyl]prop-2-enamide] | 92.1
CN(C(=O)CCl)C1CCCCC1 [5-N07, 2-chloro-N-cyclohexyl-N-methylacetamide] | 0.964
CC(Cl)C(=O)NC(C)c1nnnn1C1CC1 (stereo not shown) [7-N21, 2-chloro-N-[1-(1-cyclopropyl-1H-1,2,3,4-tetrazol-5-yl)ethyl]propanamide] | 75.9
Cc1ccc(C=C(C#N)C(=O)Nc2ccccc2C(=O)O)s1 [9-K08, 2-[2-cyano-3-(5-methylthiophen-2-yl)prop-2-enamido]benzoic acid] | 104
C=CC(=O)N1CCN(CC2CCOC2)CC1 (stereo not shown) [1-H18, 1-{4-[(oxolan-3-yl)methyl]piperazin-1-yl}prop-2-en-1-one] | 49.6
CNC(=O)Cn1ccc2ccc(NC(=O)C(C#N)=Cc3ccco3)cc21 [9-F18, 2-cyano-3-(furan-2-yl)-N-{1-[(methylcarbamoyl)methyl]-1H-indol-6-yl}prop-2-enamide] | 109
O=C1C=CC(=O)N1c1cnccn1 [10-P07, 1-(pyrazin-2-yl)-2,5-dihydro-1H-pyrrole-2,5-dione] | 103

Compound | viability at 48 h, 25 µM [%]
COc1ccc(C(C)(C)C)cc1NC(=O)CCl [4-C07, N-(5-tert-butyl-2-methoxyphenyl)-2-chloroacetamide] | 0.79
Cc1cccc(Cc2cnc(NC(=O)CCl)s2)c1 [4-B09, 2-chloro-N-{5-[(3-methylphenyl)methyl]-1,3-thiazol-2-yl}acetamide] | -0.447
O=C(CCl)C1(F)CCCCC1 [10-K19, 2-chloro-1-(1-fluorocyclohexyl)ethan-1-one] | 97.5
Cc1ccc2[nH]c3c(c2c1)CCCC3N(C)C(=O)CCl (stereo not shown) [6-H07, 2-chloro-N-methyl-N-(6-methyl-2,3,4,9-tetrahydro-1H-carbazol-1-yl)acetamide] | 0.1
O=C(CCl)N[C@H]1C[C@H](c2ccccc2)C1 [7-D12, 2-chloro-N-[(1r,3r)-3-phenylcyclobutyl]acetamide] | 0.742
C=CC(=O)NC(c1noc(O)n1)C(C)(C)C (stereo not shown) [2-C14, N-[1-(5-hydroxy-1,2,4-oxadiazol-3-yl)-2,2-dimethylpropyl]prop-2-enamide] | 96.4
CC(Cl)C(=O)NCCc1cnc2c(Cl)cnn2c1 (stereo not shown) [7-M18, 2-chloro-N-(2-{3-chloropyrazolo[1,5-a]pyrimidin-6-yl}ethyl)propanamide] | 90.6
CC(Cl)C(=O)NCCc1ccc(F)cc1 (stereo not shown) [6-F06, 2-chloro-N-[2-(4-fluorophenyl)ethyl]propanamide] | 112
C=CC(=O)N1CCC(C(=O)N(C)Cc2ccon2)CC1 [2-I14, N-methyl-N-[(1,2-oxazol-3-yl)methyl]-1-(prop-2-enoyl)piperidine-4-carboxamide] | 90.3
CC(C)C(C(=O)O)N1C(=O)C=CC1=O (stereo not shown) [10-I22, 2-(2,5-dioxo-2,5-dihydro-1H-pyrrol-1-yl)-3-methylbutanoic acid] | 106
C=CC(=O)N1CCC(C(=O)N[C@@H](C)c2ccc(Cl)s2)CC1 [3-E22, N-[(1S)-1-(5-chlorothiophen-2-yl)ethyl]-1-(prop-2-enoyl)piperidine-4-carboxamide] | 65.7
C=CC(=O)N1CCC(c2nc(C(=O)O)cs2)CC1 [1-O21, 2-[1-(prop-2-enoyl)piperidin-4-yl]-1,3-thiazole-4-carboxylic acid] | 96.9
Cc1c(Cl)cccc1N1C(=O)C=CC1=O [10-B17, 1-(3-chloro-2-methylphenyl)-2,5-dihydro-1H-pyrrole-2,5-dione] | 130
C=CC(=O)NCC1CCN(Cc2ccccc2)CC1C (stereo not shown) [3-G20, N-[(1-benzyl-3-methylpiperidin-4-yl)methyl]prop-2-enamide] | 94.1
C=CC(=O)NCc1cc(C(F)(F)C(F)(F)F)on1 [3-B19, N-{[5-(1,1,2,2,2-pentafluoroethyl)-1,2-oxazol-3-yl]methyl}prop-2-enamide] | 48.4
C=CC(=O)NCC(C)(C)C1CCCCC1 [1-E21, N-(2-cyclohexyl-2-methylpropyl)prop-2-enamide] | 75.5
COc1cccc(NC(=O)C(C#N)=Cc2cccc(O)c2)c1 [8-P03, 2-cyano-3-(3-hydroxyphenyl)-N-(3-methoxyphenyl)prop-2-enamide] | 120
O=C(CCl)c1c[nH]c2ccncc12 [10-K05, 2-chloro-1-{1H-pyrrolo[3,2-c]pyridin-3-yl}ethan-1-one] | 1.3
Cc1[nH]c2ccccc2c1C=C(C#N)C(=O)NCc1ccccc1 [8-D16, N-benzyl-2-cyano-3-(2-methyl-1H-indol-3-yl)prop-2-enamide] | 96.6
N#CC(=Cc1ccccc1O)C(=O)Nc1cccc2ncccc12 [9-G04, 2-cyano-3-(2-hydroxyphenyl)-N-(quinolin-5-yl)prop-2-enamide] | 123
O=C(CCl)NCc1ccnn1C1CCCC1 [7-H08, 2-chloro-N-[(1-cyclopentyl-1H-pyrazol-5-yl)methyl]acetamide] | 0.996
Cc1ccc(NC(=O)C(C#N)=Cc2cccc([N+](=O)[O-])c2)cc1 [8-J17, 2-cyano-N-(4-methylphenyl)-3-(3-nitrophenyl)prop-2-enamide] | 88.1
CCN(C(=O)CCl)C(c1ccccc1)c1ccc(F)cc1 (stereo not shown) [6-J11, 2-chloro-N-ethyl-N-[(4-fluorophenyl)(phenyl)methyl]acetamide] | 0.263
C=CC(=O)NCC(c1c(F)cccc1F)N1CC(C)OC(C)C1 (stereo not shown) [1-I13, N-[2-(2,6-difluorophenyl)-2-(2,6-dimethylmorpholin-4-yl)ethyl]prop-2-enamide] | 72.5
CNC(=O)c1ccn(C2CCCN(C(=O)CCl)C2)n1 (stereo not shown) [5-I08, 1-[1-(2-chloroacetyl)piperidin-3-yl]-N-methyl-1H-pyrazole-3-carboxamide] | 1.61
C=CC(=O)N(C)Cc1nc2c(n1C)CCCC2 [2-K22, N-methyl-N-[(1-methyl-4,5,6,7-tetrahydro-1H-1,3-benzodiazol-2-yl)methyl]prop-2-enamide] | 87.1
